Experimental data as given in patent publication US11091469B2, “Crystalline form of N-[5-(3,5-difluoro-benzyl)-1H-indazol-3-yl]-4-(4-methyl-piperazin-1-yl)-2-(tetrahydro-pyran-4-ylamino)-benzamide” (NERVIANO MEDICAL SCIENCES S.R.L., priority 2016, dated 2021).

Columns and labels:
[1] = Phase I clinical trials of entrectinib in cancer patients: treatment-related adverse events, recommended Phase II dose; details: across the Phase I studies
[2] = Phase I clinical trials of entrectinib in cancer patients: pharmacokinetic measurements
Description: (§1) A total of 18 patients across the Phase I studies met our expected Phase 2 eligibility criteria, which include the presence of NTRK1, NTRK2, NTRK3, ROS1 or ALK genetic alterations which are fusions, as opposed to other types of molecular alterations; the patient not having been previously treated with an ALK inhibitor or a ROS1 inhibitor and treatment at or above the recommended Phase II dose.

[3] = tested on: solid tumors with NTRK1, NTRK2, NTRK3, ROS1 or ALK genetic alterations which are fusions; test: Phase I clinical trials of entrectinib in cancer patients: tumor response (RECIST); type: in vivo, human
Description: as §1

[4] = Thermodynamic stability of crystalline forms; type: physicochemical; details: at temperature of about 40° C. or higher, vis-à-vis the three known crystalline forms (forms 1, 2, 3)

Row | pharmacokinetic measurements (exposure vs dose) ([2]; across the daily dosing regimens evaluated) | half-life ([2]; daily dosing regimens, patients) | thermodynamic stability [4] | Compound | Grade 3 treatment-related adverse event: cognitive impairment ([1]; 92 patients dosed) [patients] | Grade 3 treatment-related adverse event: diarrhea ([1]; 92 patients dosed) [patient] | Grade 3 treatment-related adverse event: fatigue ([1]; 92 patients dosed) [patients] | incidence of the most frequent treatment-related adverse events ([1]; fatigue, dysgeusia, paresthesia, nausea, myalgia) [%] | response rate, defined as complete and partial responses by RECIST criteria ([3]; 18 patients who met the expected Phase 2 eligibility criteria across both Phase I studies, assessed by the clinical sites) [%] | additional patients remaining on study with stable disease ([3]; among the 18 patients meeting expected Phase 2 eligibility criteria) [patients] | durable responses (duration on study treatment) ([3]; nine responders remaining on study treatment) | responses in patients with NTRK1, NTRK2 or NTRK3 gene rearrangements ([3]; out of 4 patients, NSCLC, colorectal cancer, salivary gland cancer) [responses] | responses in patients with ALK gene rearrangements ([3]; out of 6 patients, two NSCLC and two other solid tumors) [responses] | responses in patients with ROS1 gene rearrangements ([3]; out of 8 patients, all NSCLC, including one complete response) [responses] | responses out of treated patients ([3]; out of 18 treated patients meeting expected Phase 2 eligibility criteria) [responses] | longest time on treatment of responders ([3]; responding patients with ROS1 gene rearrangements, NSCLC) [months]
1 | dose-proportional increases | compatible with once-daily dosing | – | CN1CCN(c2ccc(C(=O)Nc3n[nH]c4ccc(Cc5cc(F)cc(F)c5)cc34)c(NC3CCOCC3)c2)CC1 [Entrectinib, N-[5-(3,5-Difluoro-benzyl)-1H-indazol-3-yl]-4-(4-methyl-piperazin-1-yl)-2-(tetrahydro-pyran-4-ylamino)-benzamide] | 2 | 1 | 4 | > 10 | 72 | 3 | up to 21 treatment cycles | 3 | 4 | 6 | 13 | 21
2 | – | – | greater thermodynamic stability | CN1CCN(c2ccc(C(=O)Nc3n[nH]c4ccc(Cc5cc(F)cc(F)c5)cc34)c(NC3CCOCC3)c2)CC1 [Form 4, N-[5-(3,5-difluoro-benzyl)-1H-indazol-3-yl]-4-(4-methyl-piperazin-1-yl)-2-(tetrahydro-pyran-4-ylamino)-benzamide] | – | – | – | – | – | – | – | – | – | – | – | –
